# Results from PubChem BioAssay AID2060618 (Molecular Pharmacology Branch, DTP, NCI, 2025).
# Test system: 454973-116-R2-J3-PDC spheroids, percent test/control viability
# Assay: Anticancer human tumor 454973-116-R2-J3-PDC patient-derived pancreatic carcinoma cell line growth inhibition [CLK]
# Conditions: spheroids with HUVEC and MSC; for IC50: curve of first compound; for viability, T/C: stronger effect = lower value
# Outline: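 Patient-derived tumor cells grown as complex spheroids with HUVEC endothelial cells and mesenchymal stem cells, treated with drug combinations. Concentrations descend in half-log steps from near clinical Cmax, or from 10 microM if Cmax unknown.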
# 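Also: spheroids exposed to compounds for 7 days before readout.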
compound,measurement,setting,value
C=CC(=O)Nc1cc(Nc2nccc(-c3cn(C)c4ccccc34)n2)c(OC)cc1N(C)CCN(C)C + CNC(=O)c1ccc(Nc2nc(OC3CCCC3)c3c(-c4ccc5nc(C)oc5c4)c[nH]c3n2)c(OC)c1,IC50,second compound 0.0316 µM,> 300 nM
same,IC50,second compound 0.1 µM,> 300 nM
same,IC50,second compound 0.316 µM,< 0.949 nM
same,IC50,second compound 1 µM,< 0.949 nM
same,IC50,second compound 3.16 µM,< 0.949 nM
same,IC50,second compound 10 µM,< 0.949 nM
same,"viability, T/C","second compound 0.0316 µM, first compound 0.000949 µM",106%
same,"viability, T/C","second compound 0.0316 µM, first compound 0.003 µM",108%
same,"viability, T/C","second compound 0.0316 µM, first compound 0.00949 µM",92.5%
same,"viability, T/C","second compound 0.0316 µM, first compound 0.03 µM",107%
same,"viability, T/C","second compound 0.0316 µM, first compound 0.0949 µM",104%
same,"viability, T/C","second compound 0.0316 µM, first compound 0.3 µM",101%
same,"viability, T/C","second compound 0.1 µM, first compound 0.000949 µM",95.9%
same,"viability, T/C","second compound 0.1 µM, first compound 0.003 µM",106%
same,"viability, T/C","second compound 0.1 µM, first compound 0.00949 µM",90.7%
same,"viability, T/C","second compound 0.1 µM, first compound 0.03 µM",80.9%
same,"viability, T/C","second compound 0.1 µM, first compound 0.0949 µM",69.7%
same,"viability, T/C","second compound 0.1 µM, first compound 0.3 µM",61%
same,"viability, T/C","second compound 0.316 µM, first compound 0.000949 µM",43.8%
same,"viability, T/C","second compound 0.316 µM, first compound 0.003 µM",36.4%
same,"viability, T/C","second compound 0.316 µM, first compound 0.00949 µM",30.5%
same,"viability, T/C","second compound 0.316 µM, first compound 0.03 µM",34.8%
same,"viability, T/C","second compound 0.316 µM, first compound 0.0949 µM",36.4%
same,"viability, T/C","second compound 0.316 µM, first compound 0.3 µM",32.7%
same,"viability, T/C","second compound 1 µM, first compound 0.000949 µM",27.9%
same,"viability, T/C","second compound 1 µM, first compound 0.003 µM",30.9%
same,"viability, T/C","second compound 1 µM, first compound 0.00949 µM",30.5%
same,"viability, T/C","second compound 1 µM, first compound 0.03 µM",29.8%
same,"viability, T/C","second compound 1 µM, first compound 0.0949 µM",34.5%
same,"viability, T/C","second compound 1 µM, first compound 0.3 µM",33.9%
same,"viability, T/C","second compound 3.16 µM, first compound 0.000949 µM",29.9%
same,"viability, T/C","second compound 3.16 µM, first compound 0.003 µM",28.3%
same,"viability, T/C","second compound 3.16 µM, first compound 0.00949 µM",26.7%
same,"viability, T/C","second compound 3.16 µM, first compound 0.03 µM",27.8%
same,"viability, T/C","second compound 3.16 µM, first compound 0.0949 µM",31.1%
same,"viability, T/C","second compound 3.16 µM, first compound 0.3 µM",22.1%
same,"viability, T/C","second compound 10 µM, first compound 0.000949 µM",33.9%
same,"viability, T/C","second compound 10 µM, first compound 0.003 µM",24%
same,"viability, T/C","second compound 10 µM, first compound 0.00949 µM",21.9%
same,"viability, T/C","second compound 10 µM, first compound 0.03 µM",25.4%
same,"viability, T/C","second compound 10 µM, first compound 0.0949 µM",27.9%
same,"viability, T/C","second compound 10 µM, first compound 0.3 µM",20.4%
O=C(c1cc(Cc2n[nH]c(=O)c3ccccc23)ccc1F)N1CCN(C(=O)C2CC2)CC1 + CN1CCN(c2cc(C(=O)Nc3cc4cc(-c5cnn(C)c5)ccc4cn3)ccn2)CC1,IC50,second compound 0.0316 µM,> 10000 nM
same,IC50,second compound 0.1 µM,5860 nM
same,IC50,second compound 0.316 µM,< 31.6 nM
same,IC50,second compound 1 µM,< 31.6 nM
same,IC50,second compound 3.16 µM,< 31.6 nM
same,IC50,second compound 10 µM,< 31.6 nM
same,"viability, T/C","second compound 0.0316 µM, first compound 0.0316 µM",99%
same,"viability, T/C","second compound 0.0316 µM, first compound 0.1 µM",99.5%
same,"viability, T/C","second compound 0.0316 µM, first compound 0.316 µM",101%
same,"viability, T/C","second compound 0.0316 µM, first compound 1 µM",115%
same,"viability, T/C","second compound 0.0316 µM, first compound 3.16 µM",94.7%
same,"viability, T/C","second compound 0.0316 µM, first compound 10 µM",71.8%
same,"viability, T/C","second compound 0.1 µM, first compound 0.0316 µM",75.8%
same,"viability, T/C","second compound 0.1 µM, first compound 0.1 µM",77%
same,"viability, T/C","second compound 0.1 µM, first compound 0.316 µM",73.5%
same,"viability, T/C","second compound 0.1 µM, first compound 1 µM",75.7%
same,"viability, T/C","second compound 0.1 µM, first compound 3.16 µM",62.5%
same,"viability, T/C","second compound 0.1 µM, first compound 10 µM",38%
same,"viability, T/C","second compound 0.316 µM, first compound 0.0316 µM",1.44%
same,"viability, T/C","second compound 0.316 µM, first compound 0.1 µM",2.27%
same,"viability, T/C","second compound 0.316 µM, first compound 0.316 µM",1.78%
same,"viability, T/C","second compound 0.316 µM, first compound 1 µM",1.98%
same,"viability, T/C","second compound 0.316 µM, first compound 3.16 µM",2.16%
same,"viability, T/C","second compound 0.316 µM, first compound 10 µM",2.03%
same,"viability, T/C","second compound 1 µM, first compound 0.0316 µM",0.12%
same,"viability, T/C","second compound 1 µM, first compound 0.1 µM",0.14%
same,"viability, T/C","second compound 1 µM, first compound 0.316 µM",1.94%
same,"viability, T/C","second compound 1 µM, first compound 1 µM",0.08%
same,"viability, T/C","second compound 1 µM, first compound 3.16 µM",0.83%
same,"viability, T/C","second compound 1 µM, first compound 10 µM",0.08%
same,"viability, T/C","second compound 3.16 µM, first compound 0.0316 µM",0.13%
same,"viability, T/C","second compound 3.16 µM, first compound 0.1 µM",0.21%
same,"viability, T/C","second compound 3.16 µM, first compound 0.316 µM",0.33%
same,"viability, T/C","second compound 3.16 µM, first compound 1 µM",0.13%
same,"viability, T/C","second compound 3.16 µM, first compound 3.16 µM",0.29%
same,"viability, T/C","second compound 3.16 µM, first compound 10 µM",0.27%
same,"viability, T/C","second compound 10 µM, first compound 0.0316 µM",1.42%
same,"viability, T/C","second compound 10 µM, first compound 0.1 µM",0.14%
same,"viability, T/C","second compound 10 µM, first compound 0.316 µM",0.17%
same,"viability, T/C","second compound 10 µM, first compound 1 µM",0.13%
same,"viability, T/C","second compound 10 µM, first compound 3.16 µM",0.39%
same,"viability, T/C","second compound 10 µM, first compound 10 µM",0.22%
